Measurements: PMC9462851, “Redox-controlled reorganization and flavin strain within the ribonucleotide reductase R2b–NrdI complex monitored by serial femtosecond crystallography” (eLife, 2022)
Blank lines part the entries; values can stand above or below the molecule they belong to.

Assays:
[1] = biological target: T1, BcR2b–NrdI complex (BcR2bMnMn–NrdI) (Bacillus cereus, UniProt Q81G55+Q81G57); assay: serial femtosecond crystallography (XFEL), […] Å; format: binding; conditions: Mn(II)/Mn(II) R2b, room temperature
T1 construct: Untagged purification from E. coli BL21(DE3), plasmids pET22b-BcnrdI and pET22b-Bcr2b; NrdI 118 residues, 13,449 Da; R2b 322 residues, 37,017 Da, produced metal-free then Mn(II)-loaded; 1:1 complex, dimer of heterodimers
T1 sequence (Q81G57 1-119): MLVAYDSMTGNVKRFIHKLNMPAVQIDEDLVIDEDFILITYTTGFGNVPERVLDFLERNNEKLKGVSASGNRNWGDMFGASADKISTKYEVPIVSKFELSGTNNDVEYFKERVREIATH
T1 sequence (Q81G55 1-322): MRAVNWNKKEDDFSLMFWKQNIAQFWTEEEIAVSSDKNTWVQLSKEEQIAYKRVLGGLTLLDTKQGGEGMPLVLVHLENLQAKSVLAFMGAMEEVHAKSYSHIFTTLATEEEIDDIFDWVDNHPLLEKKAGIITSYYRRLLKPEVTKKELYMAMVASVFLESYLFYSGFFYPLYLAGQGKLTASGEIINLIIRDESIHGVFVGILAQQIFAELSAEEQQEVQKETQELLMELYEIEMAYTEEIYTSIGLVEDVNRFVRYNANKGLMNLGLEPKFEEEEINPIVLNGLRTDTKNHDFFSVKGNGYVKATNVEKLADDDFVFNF

[2] = biological target: Bacillus cereus ribonucleotide reductase class Ib R2 subunit (R2b), di-manganese form (Bacillus cereus); assay: crystal structure; serial femtosecond crystallography at an XFEL (LCLS MFX), room temperature, 2.0 Å; complex reconstituted in vitro by mixing 0.25 mM BcR2b (with 12 equivalents Mn(II)Cl2) and 0.25 mM BcNrdI in 50 mM Tris-HCl pH 7.5, 20°C; batch crystals with NrdI oxidized (7Z3D) or reduced in the crystal with dithionite to the hydroquinone (7Z3E)

Molecule: Cc1cc2nc3c(=O)[nH]c(=O)nc-3n(C[C@H](O)[C@H](O)[C@H](O)COP(=O)(O)O)c2cc1C [FMNox, flavin mononucleotide]
serial femtosecond crystallography (XFEL), 2.0 Å ([1]; oxidized crystals grown aerobically, noncovalent FMN in NrdI at the R2b interface (R2b Phe17, Gln20)): The structure from these crystals is later referred to as BcR2bMnMn–NrdIox (PDB ID: 7Z3D)

Molecule: Cc1cc2c(cc1C)N(C[C@H](O)[C@H](O)[C@H](O)COP(=O)(O)O)c1[nH]c(=O)[nH]c(=O)c1N2 [FMNhq, hydroquinone flavin mononucleotide]
serial femtosecond crystallography (XFEL), 2.0 Å ([1]; anaerobic, crystals reduced with sodium dithionite, noncovalent FMN in NrdI at the R2b interface): The corresponding structure is denoted BcR2bMnMn–NrdIhq (PDB ID: 7Z3E)

stoichiometry N [2]: 1
B1: Bacillus cereus NrdI (flavoprotein with bound flavin mononucleotide) (natural protein)
chain: MLVAYDSMTGNVKRFIHKLNMPAVQIDEDLVIDEDFILITYTTGFGNVPERVLDFLERNNEKLKGVSASGNRNWGDMFGASADKISTKYEVPIVSKFELSGTNNDVEYFKERVREIAT
